Our source for the IC50 values is patent publication US11795177B2, “Substituted quinoline analogs as aldehyde dehydrogenase 1A1 (ALDH1A1) inhibitors” (THE UNITED STATES OF AMERICA, AS REPRESENTED BY THE …, priority 2017, dated 2023).

The test system of one assay is MIA PaCa-2 cells. Put plainly: MIA PaCa2 cell-based assay (1,536-well high-content imaging ALDEFLUOR assay). The settings on record: Homo sapiens, 0.5 h, ALDEFLUOR BAAA substrate 500 nM, 30 minutes. The arrangement: species or system human. Summed up:
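MIA PaCa-2 cells (1,000/well), plated overnight, given BAAA substrate (500 nM) plus Hoechst 33342 (0.5 nM), then compound (16-point, 1.4 nM–47.8 μM final; 0.5% DMSO). After 30 min at 37° C, ALDH activity imaged by high-content microscopy as BAA-retaining (FITC) cells versus Hoechst-stained nuclei.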

In another assay the target is T1, ALDH1A1 enzyme (Homo sapiens, UniProt P00352).
T1 sequence (P00352 1-501): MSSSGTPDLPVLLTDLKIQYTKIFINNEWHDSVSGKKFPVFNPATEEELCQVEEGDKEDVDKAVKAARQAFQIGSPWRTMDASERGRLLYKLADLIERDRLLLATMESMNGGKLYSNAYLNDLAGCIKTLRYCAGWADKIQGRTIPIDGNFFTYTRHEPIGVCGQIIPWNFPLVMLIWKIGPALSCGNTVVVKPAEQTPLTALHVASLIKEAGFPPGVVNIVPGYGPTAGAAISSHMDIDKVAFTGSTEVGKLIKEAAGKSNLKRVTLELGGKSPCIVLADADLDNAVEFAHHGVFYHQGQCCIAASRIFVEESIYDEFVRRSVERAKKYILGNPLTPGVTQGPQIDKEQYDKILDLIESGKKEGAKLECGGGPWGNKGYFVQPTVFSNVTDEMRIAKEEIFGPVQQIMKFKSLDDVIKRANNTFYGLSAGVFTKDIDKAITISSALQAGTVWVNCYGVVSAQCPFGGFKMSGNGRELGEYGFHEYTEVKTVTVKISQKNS
The assay can be described thus: ALDH1A1 enzymatic assay (in vitro). In kind it is biochemical. The settings on record: ALDH1A1 enzyme 20 nM, NAD+ 1 mM, propionaldehyde 80 μM; read-out: ALDH1A1 IC50. The gist of the method:
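ALDH1A1 (20 nM final) in 100 mM HEPES pH 7.5, 0.01% Tween 20 was preincubated 15 min at RT with compound (968 pM–57.2 μM final), then started with 1 mM NAD+ and 80 μM propionaldehyde. NADH fluorescence (ex 340/em 450 nm) followed kinetically for 10 min; change normalized to no-inhibitor and no-enzyme controls for percent inhibition and curve fitting.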

As a reminder, the IC50 is the concentration needed to halve the response being measured. Turning to `CC(C)NC(=O)N1CCN(C(=O)c2cnc3ccc(F)cc3c2N2CCC(C)(C#N)CC2)CC1` [Example 90, 4-(4-(4-cyano-4-methylpiperidin-1-yl)-6-fluoroquinoline-3-carbonyl)-N-isopropylpiperazine-1-carboxamide], the 50% inhibitory concentration (IC50) is more than 10000 nM with MIA PaCa-2 cells and 1000 to 10000 nM on ALDH1A1 enzyme.
`CC1(C#N)CCN(c2c(C(=O)N3CCN(C(=O)C4CC4)CC3)cnc3ccccc23)CC1` [Example 93, 1-(3-(4-(cyclopropanecarbonyl)piperazine-1-carbonyl)quinolin-4-yl)-4-methylpiperidine-4-carbonitrile]: the IC50 with MIA PaCa-2 cells is 1000 to 10000 nM; at ALDH1A1 enzyme, less than 500 nM.
The corresponding values for `CCC(=O)N1CCN(C(=O)c2cnc3ccccc3c2N2CCC(C)(C#N)CC2)CC1` [Example 94, 4-methyl-1-(3-(4-propionylpiperazine-1-carbonyl)quinolin-4-yl)piperidine-4-carbonitrile] are more than 10000 nM and 500 to 1000 nM.
The corresponding values for `CC(C)C(=O)N1CCN(C(=O)c2cnc3ccccc3c2N2CCC(C)(C#N)CC2)CC1` [Example 95, 1-(3-(4-isobutyrylpiperazine-1-carbonyl)quinolin-4-yl)-4-methylpiperidine-4-carbonitrile] are more than 10000 nM and less than 500 nM.
On the same counts, the results for `CC(=O)N1CCN(C(=O)c2cnc3ccccc3c2N2CCC(C)(C#N)CC2)CC1` [Example 96, 1-(3-(4-acetylpiperazine-1-carbonyl)quinolin-4-yl)-4-methylpiperidine-4-carbonitrile] are more than 10000 nM and 1000 to 10000 nM.
With `CC1(C#N)CCN(c2c(C(=O)N3CCN(S(C)(=O)=O)CC3)cnc3ccccc23)CC1` [Example 97, 4-methyl-1-(3-(4-(methylsulfonyl)piperazine-1-carbonyl)quinolin-4-yl)piperidine-4-carbonitrile], the IC50 in the assay on MIA PaCa-2 cells was more than 10000 nM; at ALDH1A1 enzyme, less than 500 nM.
For `CC1(C#N)CCN(c2c(C(=O)N3CCN(S(=O)(=O)C4CC4)CC3)cnc3ccccc23)CC1` [Example 98, 1-(3-(4-(cyclopropylsulfonyl)piperazine-1-carbonyl)quinolin-4-yl)-4-methylpiperidine-4-carbonitrile], the IC50 in the assay with MIA PaCa-2 cells is more than 10000 nM; at ALDH1A1 enzyme, 1000 to 10000 nM.
On the same counts, the results for `CCNC(=O)N1CCN(C(=O)c2cnc3ccccc3c2N2CCC(C)(C#N)CC2)CC1` [Example 99, 4-(4-(4-cyano-4-methylpiperidin-1-yl)quinoline-3-carbonyl)-N-ethylpiperazine-1-carboxamide] are more than 10000 nM and 1000 to 10000 nM.
The corresponding values for `CCOC(=O)N1CCN(C(=O)c2cnc3ccccc3c2N2CCC(C)(C#N)CC2)CC1` [Example 100, Ethyl 4-(4-(4-cyano-4-methylpiperidin-1-yl)quinoline-3-carbonyl)piperazine-1-carboxylate] are more than 10000 nM and 500 to 1000 nM.
The corresponding values for `COc1ccc2c(N3CCC(C)(C#N)CC3)c(C(=O)N3CCN(C(=O)C4CC4)CC3)cnc2c1` [Example 101, 1-(3-(4-(cyclopropanecarbonyl)piperazine-1-carbonyl)-7-methoxyquinolin-4-yl)-4-methylpiperidine-4-carbonitrile] are 1000 to 10000 nM and less than 500 nM.
As for `CCC(=O)N1CCN(C(=O)c2cnc3cc(OC)ccc3c2N2CCC(C)(C#N)CC2)CC1` [Example 102, 1-(7-methoxy-3-(4-propionylpiperazine-1-carbonyl)quinolin-4-yl)-4-methylpiperidine-4-carbonitrile], the results for the IC50 in the assay with MIA PaCa-2 cells and at ALDH1A1 enzyme were 1000 to 10000 nM and less than 500 nM, respectively.
On the same counts, the results for `COc1ccc2c(N3CCC(C)(C#N)CC3)c(C(=O)N3CCN(C(=O)C(C)C)CC3)cnc2c1` [Example 103, 1-(3-(4-isobutyrylpiperazine-1-carbonyl)-7-methoxyquinolin-4-yl)-4-methylpiperidine-4-carbonitrile] are 1000 to 10000 nM and less than 500 nM.
The corresponding values for `COc1ccc2c(N3CCC(C)(C#N)CC3)c(C(=O)N3CCN(C(C)=O)CC3)cnc2c1` [Example 104, 1-(3-(4-acetylpiperazine-1-carbonyl)-7-methoxyquinolin-4-yl)-4-methylpiperidine-4-carbonitrile] are more than 10000 nM and less than 500 nM.
On the same counts, the results for `COc1ccc2c(N3CCC(C)(C#N)CC3)c(C(=O)N3CCN(S(C)(=O)=O)CC3)cnc2c1` [Example 105, 1-(7-methoxy-3-(4-(methylsulfonyl)piperazine-1-carbonyl)quinolin-4-yl)-4-methylpiperidine-4-carbonitrile] are 1000 to 10000 nM and less than 500 nM.
Turning to `COc1ccc2c(N3CCC(C)(C#N)CC3)c(C(=O)N3CCN(S(=O)(=O)C4CC4)CC3)cnc2c1` [Example 106, 1-(3-(4-(cyclopropylsulfonyl)piperazine-1-carbonyl)-7-methoxyquinolin-4-yl)-4-methylpiperidine-4-carbonitrile], the IC50 is 1000 to 10000 nM in the assay with MIA PaCa-2 cells and less than 500 nM at ALDH1A1 enzyme.
The corresponding values for `CCNC(=O)N1CCN(C(=O)c2cnc3cc(OC)ccc3c2N2CCC(C)(C#N)CC2)CC1` [Example 107, 4-(4-(4-cyano-4-methylpiperidin-1-yl)-7-methoxyquinoline-3-carbonyl)-N-ethylpiperazine-1-carboxamide] are 1000 to 10000 nM and less than 500 nM.
On the same counts, the results for `CCOC(=O)N1CCN(C(=O)c2cnc3cc(OC)ccc3c2N2CCC(C)(C#N)CC2)CC1` [Example 108, Ethyl 4-(4-(4-cyano-4-methylpiperidin-1-yl)-7-methoxyquinoline-3-carbonyl)piperazine-1-carboxylate] are 1000 to 10000 nM and less than 500 nM.
The corresponding values for `COc1cc2ncc(C(=O)N3CCN(C(=O)C4CC4)CC3)c(N3CCC(C)(C#N)CC3)c2cc1OC` [Example 109, 1-(3-(4-(cyclopropanecarbonyl)piperazine-1-carbonyl)-6,7-dimethoxyquinolin-4-yl)-4-methylpiperidine-4-carbonitrile] are 1000 to 10000 nM and less than 500 nM.
Take `CCC(=O)N1CCN(C(=O)c2cnc3cc(OC)c(OC)cc3c2N2CCC(C)(C#N)CC2)CC1` [Example 110, 1-(6,7-dimethoxy-3-(4-propionylpiperazine-1-carbonyl)quinolin-4-yl)-4-methylpiperidine-4-carbonitrile]: the IC50 in the assay on MIA PaCa-2 cells was 1000 to 10000 nM; at ALDH1A1 enzyme, less than 500 nM.
The corresponding values for `COc1cc2ncc(C(=O)N3CCN(C(=O)C(C)C)CC3)c(N3CCC(C)(C#N)CC3)c2cc1OC` [Example 111, 1-(3-(4-isobutyrylpiperazine-1-carbonyl)-6,7-dimethoxyquinolin-4-yl)-4-methylpiperidine-4-carbonitrile] are 1000 to 10000 nM and less than 500 nM.
On the same counts, the results for `COc1cc2ncc(C(=O)N3CCN(C(C)=O)CC3)c(N3CCC(C)(C#N)CC3)c2cc1OC` [Example 112, 1-(3-(4-acetylpiperazine-1-carbonyl)-6,7-dimethoxyquinolin-4-yl)-4-methylpiperidine-4-carbonitrile] are 1000 to 10000 nM and less than 500 nM.
On the same counts, the results for `COc1cc2ncc(C(=O)N3CCN(S(C)(=O)=O)CC3)c(N3CCC(C)(C#N)CC3)c2cc1OC` [Example 113, 1-(6,7-dimethoxy-3-(4-(methylsulfonyl)piperazine-1-carbonyl)quinolin-4-yl)-4-methylpiperidine-4-carbonitrile] are 1000 to 10000 nM and less than 500 nM.
Consider `COc1cc2ncc(C(=O)N3CCN(S(=O)(=O)C4CC4)CC3)c(N3CCC(C)(C#N)CC3)c2cc1OC` [Example 114, 1-(3-(4-(cyclopropylsulfonyl)piperazine-1-carbonyl)-6,7-dimethoxyquinolin-4-yl)-4-methylpiperidine-4-carbonitrile], for which the IC50 is 1000 to 10000 nM in the assay on MIA PaCa-2 cells and less than 500 nM on ALDH1A1 enzyme.
On the same counts, the results for `CCNC(=O)N1CCN(C(=O)c2cnc3cc(OC)c(OC)cc3c2N2CCC(C)(C#N)CC2)CC1` [Example 115, 4-(4-(4-cyano-4-methylpiperidin-1-yl)-6,7-dimethoxyquinoline-3-carbonyl)-N-ethylpiperazine-1-carboxamide] are more than 10000 nM and less than 500 nM.
With `CCOC(=O)N1CCN(C(=O)c2cnc3cc(OC)c(OC)cc3c2N2CCC(C)(C#N)CC2)CC1` [Example 116, Ethyl 4-(4-(4-cyano-4-methylpiperidin-1-yl)-6,7-dimethoxyquinoline-3-carbonyl)piperazine-1-carboxylate], the results for the IC50 in the assay on MIA PaCa-2 cells and at ALDH1A1 enzyme were 1000 to 10000 nM and less than 500 nM, respectively.
On the same counts, the results for `CC1(C#N)CCN(c2c(C(=O)N3CCN(C(=O)C4CC4)CC3)cnc3ccc(Cl)cc23)CC1` [Example 117, 1-(6-chloro-3-(4-(cyclopropanecarbonyl)piperazine-1-carbonyl)quinolin-4-yl)-4-methylpiperidine-4-carbonitrile] are 1000 to 10000 nM and less than 500 nM.
